Assay results taken from paper PMC13239830, “Antimicrobial Peptides Induce Cell Death in Marginal Zone Lymphoma Models Resistant to Targeted Therapies” (EJHaem, 2026).
Entries after “also recorded” stand apart in the source; their conditions may differ. Peptide text beside a SMILES is read from it.

How the values were obtained:
[1] = test system: VL51-Copa (copanlisib-resistant VL51) cells; format: cell-based, human; conditions: 72 h
Description: (§1) The established human cell lines VL51 1 and Karpas1718 2, derived from bona fide marginal zone lymphomas (MZL), and their derivatives with secondary resistance obtained by long exposure to the BTK inhibitor ibrutinib, the PI3Kδ inhibitor idelalisib or the PI3Kα/δ inhibitor copanlisib (three from VL51 3-5, and one from Karpas1718 6). Cell lines were cultured in RPMI supplemented with fetal bovine serum (FBS) (10%) and penicillin-streptomycin-neomycin (≈5,000 units penicillin, 5 mg streptomycin, and 10 mg neomycin/mL; Sigma-Aldrich, Darmstadt, Germany). Cell line identities were confirmed by periodic short tandem repeat (STR) DNA fingerprinting using the Promega GenePrint 10 System kit (B9510).
(§2) Cells were regularly tested for mycoplasma negativity using the MycoAlert Mycoplasma Detection Kit (Lonza, Visp, Switzerland).
(§3) […] Purity (>95%) was confirmed by reverse-phase high-performance liquid chromatography (RP-HPLC) while molecular masses were verified by mass spectrometry. Peptides were dissolved in nuclease-free water, and 2 mM stock solutions were prepared 7.
(§4) Antarctic peptides were synthesized by Caslo Aps (Caslo Aps Kongens, Lyngby, Denmark) with 98% purity. Purity was confirmed by reverse-phase high-performance liquid chromatography (RP-HPLC), and molecular masses were verified by mass spectrometry. As previously reported, the peptide stock concentration in nuclease-free water (1 mM) was determined spectrophotometrically.
(§5) In vitro cytotoxic activity
(§6) Cells were manually seeded into 96-well plates (VL51, 10’000 cells per well; SSK41, 20’000 cells per well; Karpas1718, 30’000 cells per well). Treatments were applied manually, and cell viability was assessed after 72 hours using 3-(4,5-dimethylthiazol-2-yl)-2,5-diphenyltetrazolium bromide (MTT).
(§7) After a 4-hour incubation, the reaction was terminated by adding sodium dodecyl sulfate (SDS) lysis buffer. Plates were analyzed with Cytation3, and IC50s were calculated using the 4-parameter logistic model (R environment or GraphPad Prism, Version 10.6.1). Antarctic peptides were tested at 40μM, with 1:2 dilutions down to 625 nM. Temporins were tested at 100μM, with 1:5 dilutions down to 32 nM. […]

[2] = test system: Karpas1718-Idel (idelalisib-resistant Karpas1718) cells; format: cell-based, human; conditions: 72 h
Description: as §1, §2, §3, §4, §5, §6, §7

[3] = test system: VL51-Ibru (ibrutinib-resistant VL51) cells; format: cell-based, human; conditions: 72 h
Description: as §1, §2, §3, §4, §5, §6, §7

[4] = test system: VL51-Idel (idelalisib-resistant VL51) cells; format: cell-based, human; conditions: 72 h
Description: as §1, §2, §3, §4, §5, §6, §7

Karpas1718 cells = format: cell-based, human; conditions: 72 h
Description: as §1, §2, §3, §4, §5, §6, §7

VL51 cells = format: cell-based, human; conditions: 72 h
Description: as §1, §2, §3, §4, §5, §6, §7

[5] = test system: MZL cell lines (VL51, Karpas1718) and resistant derivatives; test: In vitro cytotoxic activity (MTT, 72 h), summary over the MZL cell line panel; format: cell-based; conditions: for activity in resistant models: derivatives resistant to BTK, PI3Kδ or PI3Kα/δ inhibitors
Description: For in vitro testing, we used two human MZL cell lines, VL51 and Karpas1718, along with derivative clones rendered resistant by prolonged exposure to the BTK inhibitor ibrutinib, the PI3Kδ inhibitor idelalisib, or the PI3Kα/δ inhibitor copanlisib (Table S1; methods described in the Supporting Information). […] The calculated IC50 values ranged from 5 to 10 µM (Table S2). […] These findings were validated by treating lymphoma cells and peripheral blood mononuclear cells (PBMCs) in parallel. […] While acquired resistance to BTK or PI3K inhibitors often involves secondary mutations in the drug‐binding site, activation of alternative kinases, or evasion of apoptosis through upregulation of anti‐apoptotic proteins, these adaptations are unlikely to protect tumor cells from AMP‐mediated membrane disruption. […]
as §1, §2, §3, §4, §5, §6, §7

PBMCs = test: Cell death and membrane integrity by Annexin V/PI staining; format: cell-based; conditions: 10 µM, 1 and 2 h, PBMCs treated in parallel, flow cytometry
Description: as §1
Cells were regularly tested for mycoplasma negativity using the MycoAlert Mycoplasma Detection Kit (Lonza, Visp, Switzerland). […]
Antarctic peptides were synthesized by Caslo Aps (Caslo Aps Kongens, Lyngby, Denmark) with 98% purity. […] As previously reported, the peptide stock concentration in nuclease-free water (1 mM) was determined spectrophotometrically. […]
Subsequently, cells were stained with Annexin V and propidium iodide (PI) (Annexin V FITC Apoptosis Detection Kit, BMS500FI-300, Life Technologies) following the manufacturer ’s instructions and analyzed through flow cytometry and immunofluorescence (Leica Thunder microscope). […]

Karpas1718-Idel cells = test: as above; format: cell-based, human; conditions: 10 µM, 1 and 2 h, flow cytometry
Description: as §1, §2, §3
as §4, with “spectrophotometrically. […]” for “spectrophotometrically.”
Subsequently, cells were stained with Annexin V and propidium iodide (PI) (Annexin V FITC Apoptosis Detection Kit, BMS500FI-300, Life Technologies) following the manufacturer ’s instructions and analyzed through flow cytometry and immunofluorescence (Leica Thunder microscope).
PBMCs. Flow cytometric (A) and immunofluorescence (B) analyses of Annexin V/PI staining in Karpas1718-Idel cells and PBMCs after 1- and 2-hour treatments with W-trematocine or Temporin L at 10 µM. (B) Representative images (100x magnification) show brightfield, Annexin V (green), and PI […]

nonmalignant cells = conditions: prior studies; ref prior studies; cited from earlier work
Excerpt: ABSTRACT Introduction Marginal zone lymphoma (MZL) is an indolent yet incurable B‐cell malignancy in which targeted agents such as BTK and PI3K inhibitors frequently fail due to resistance or toxicity. […] Methods Peptides were synthesized and tested for their anti‐proliferative activity in MZL cell lines. Results We evaluated the antitumor activity of seven natural AMPs, including Antarctic fish–derived trem ...

rabbit erythrocytes = conditions: ref [9]; cited from earlier work
[6] = test system: primary human fibroblasts; conditions: up to 25 µM, 24 h, ref [9]; cited from earlier work

Compound | IC50 [1] | IC50 [2] | IC50 [3] | IC50 [4] | IC50 (Karpas1718 cells) | IC50 (VL51 cells) | anti-proliferative activity (in words) ([5]; MZL cell lines VL51, Karpas1718 and resistant derivatives) | cytotoxic effect ([5]; concentrations up to 50 µM, MZL cell lines) | sensitivity of PBMCs (Annexin V/PI staining) (PBMCs; listed as temporin L) | activity in resistant models [5] | anti-lymphoma activity (Annexin V/PI staining) (Karpas1718-Idel cells) | anti-lymphoma activity (Annexin V/PI staining) (Karpas1718-Idel cells; listed as temporin L) | IC50 ([5]; 72 h) | sensitivity of PBMCs (Annexin V/PI staining) (PBMCs) | toxicity toward nonmalignant cells (nonmalignant cells) | hemolysis (rabbit erythrocytes) | cytotoxicity [6]
CSCC[C@H](NC(=O)CNC(=O)[C@H](Cc1c[nH]cn1)NC(=O)[C@@H](NC(=O)[C@H](CCCNC(=N)N)NC(=O)[C@H](CCC(=O)O)NC(=O)[C@H](C)NC(=O)[C@H](C)NC(=O)[C@@H](NC(=O)[C@H](CC(C)C)NC(=O)[C@H](C)NC(=O)[C@H](Cc1c[nH]cn1)NC(=O)CNC(=O)[C@@H](NC(=O)[C@H](Cc1c[nH]cn1)NC(=O)[C@H](CCCCN)NC(=O)[C@H](Cc1c[nH]c2ccccc12)NC(=O)[C@H](Cc1ccccc1)NC(=O)[C@H](CCC(=O)O)NC(=O)[C@@H](N)Cc1ccccc1)C(C)C)[C@@H](C)O)C(C)C)C(=O)N[C@@H](CC(C)C)C(=O)N[C@H](C(=O)NCC(=O)O)[C@@H](C)O [Chionodracine] (H-FEFWKHVGHALTAAERVHGMLTG-OH; N-terminus and C-terminus assumed) | > 40 µM | > 40 µM | > 40 µM | > 40 µM | > 40 µM | > 40 µM | inactive | no measurable cytotoxic effect |  |  |  |  |  |  |  |  | 
CC[C@H](C)[C@H](NC(=O)CNC(=O)[C@H](CO)NC(=O)[C@H](CC(C)C)NC(=O)[C@@H](NC(=O)[C@H](CCCNC(=N)N)NC(=O)CNC(=O)[C@@H](NC(=O)[C@H](CC(C)C)NC(=O)[C@@H]1CCCN1C(=O)[C@H](CC(C)C)NC(=O)[C@@H](N)Cc1ccccc1)[C@@H](C)CC)C(C)C)C(=O)N[C@@H](CC(C)C)C(N)=O [Temporin A] (H-FLPLIGRVLSGIL-NH2; N-terminus and C-terminus assumed) | 48.8 µM | 49 µM | 48.5 µM | 27.5 µM | 47.4 µM | 32 µM |  |  |  |  |  |  |  |  |  |  | 
CC[C@H](C)[C@H](NC(=O)[C@@H]1CCCN1C(=O)[C@H](CC(C)C)NC(=O)[C@@H](N)CC(C)C)C(=O)N[C@H](C(=O)NCC(=O)N[C@@H](CC(N)=O)C(=O)N[C@@H](CC(C)C)C(=O)N[C@@H](CC(C)C)C(=O)N[C@@H](CCCCN)C(=O)N[C@@H](CO)C(=O)N[C@@H](CC(C)C)C(=O)N[C@@H](CC(C)C)C(N)=O)C(C)C [Temporin B] (H-LLPIVGNLLKSLL-NH2; N-terminus and C-terminus assumed) | 47.7 µM | 71.4 µM | 45.4 µM | 31.6 µM | 44.1 µM | 38.2 µM |  |  |  |  |  |  |  |  |  |  | 
CC[C@H](C)[C@H](NC(=O)CNC(=O)[C@H](CC(N)=O)NC(=O)[C@H](CC(C)C)NC(=O)[C@@H](NC(=O)[C@H](CCCNC(=N)N)NC(=O)CNC(=O)[C@@H](NC(=O)[C@@H](NC(=O)[C@@H]1CCCN1C(=O)[C@H](Cc1ccccc1)NC(=O)[C@@H](N)Cc1ccccc1)C(C)C)[C@@H](C)CC)[C@@H](C)CC)C(=O)N[C@@H](CC(C)C)C(N)=O [Temporin G] (H-FFPVIGRILNGIL-NH2; N-terminus assumed) | 26.5 µM | 101 µM | 38.1 µM | 28.2 µM | 31 µM | 35.2 µM |  |  |  |  |  |  |  |  |  |  | 
CC[C@H](C)[C@H](NC(=O)[C@H](CCCNC(=N)N)NC(=O)CNC(=O)[C@H](CC(C)C)NC(=O)[C@H](Cc1ccccc1)NC(=O)[C@H](CCCCN)NC(=O)[C@H](CO)NC(=O)[C@H](Cc1ccccc1)NC(=O)[C@H](Cc1c[nH]c2ccccc12)NC(=O)[C@H](CCC(N)=O)NC(=O)[C@@H](NC(=O)[C@@H](N)Cc1ccccc1)C(C)C)C(=O)N[C@@H](CC(C)C)C(N)=O [Temporin L] (H-FVQWFSKFLGRIL-NH2) | 7.4 µM | 10.1 µM | 9.6 µM | 6.4 µM | 7.5 µM | 8.9 µM |  |  | markedly less sensitive | maintaining full activity in all resistant models | active in lymphoma cells | potent anti‐lymphoma activity |  |  |  |  | 
CC[C@H](C)[C@H](NC(=O)CNC(=O)[C@H](CCCNC(=N)N)NC(=O)[C@H](Cc1ccc(O)cc1)NC(=O)[C@H](CC(C)C)NC(=O)[C@H](CCC(N)=O)NC(=O)[C@H](CO)NC(=O)[C@H](Cc1ccccc1)NC(=O)[C@@H](N)Cc1ccccc1)C(=O)N[C@H](C(=O)N[C@@H](CO)C(=O)N[C@H](C(=O)NCC(=O)N[C@@H](CCCCN)C(=O)N[C@@H](Cc1c[nH]cn1)C(=O)N[C@H](C(=O)N[C@@H](Cc1c[nH]cn1)C(=O)NCC(=O)N[C@@H](CC(C)C)C(=O)N[C@@H](CC(C)C)C(=O)N[C@@H](CO)C(=O)NCC(=O)O)[C@@H](C)CC)C(C)C)C(C)C [Trematocine-1] (H-FFSQLYRGIVSVGKHIHGLLSG-OH; N-terminus and C-terminus assumed) | > 40 µM | > 40 µM | > 40 µM | > 40 µM | > 40 µM | > 40 µM |  |  |  |  |  |  | 25 to 50 µM |  |  |  | 
CC[C@H](C)[C@H](NC(=O)CNC(=O)[C@H](CCCNC(=N)N)NC(=O)[C@H](CC(C)C)NC(=O)[C@H](CC(C)C)NC(=O)[C@H](Cc1c[nH]cn1)NC(=O)CNC(=O)[C@H](Cc1ccccc1)NC(=O)[C@@H](N)Cc1c[nH]c2ccccc12)C(=O)N[C@H](C(=O)N[C@@H](CO)C(=O)N[C@H](C(=O)NCC(=O)N[C@@H](CCCCN)C(=O)N[C@@H](Cc1c[nH]cn1)C(=O)N[C@H](C(=O)N[C@@H](Cc1c[nH]cn1)C(=O)NCC(=O)N[C@@H](CC(C)C)C(=O)N[C@H](C(=O)N[C@H](C(=O)NCC(=O)O)[C@@H](C)O)[C@@H](C)CC)[C@@H](C)CC)C(C)C)C(C)C [W-Trematocine] (H-WFGHLLRGIVSVGKHIHGLITG-OH; N-terminus and C-terminus assumed) | 7.1 µM | 6.5 µM | 6.5 µM | 7.6 µM | 5 µM | 5.5 µM |  |  |  | maintaining full activity in all resistant models | active in lymphoma cells; also recorded: potent anti‐lymphoma activity |  |  | markedly less sensitive | minimal toxicity | minimal hemolysis | negligible cytotoxicity
